In patent US5322842A, “Tricyclic benzodiazepine derivates, their preparation, and pharmaceutical compositions containing them” (Fujisawa Pharmaceutical Co., Ltd., priority 1990, dated 1994):

System: CCK receptor (rat pancreatic membranes)
Assay: [125I] CCK-8 binding to rat pancreatic membranes
Settings: test compound 1×10^-8 M, 50 pM 125I-CCK-8, 30 min, 37° C.
Procedure: [^125 I ] CCK-8 binding to rat pancreatic membranes
Rats were killed by a blow on the head and bled to death. Whole pancreas (about 0.7 g) was removed, minced in a small quantity of 50 mM Tris-HCl buffer (pH 7.4), and homogenized in 30 vol: of the buffer by a polytron homogenizer. The homogenate was centrifuged at 30000×g (16000 rpm) for 10 min. The pellet was then resuspended in the same buffer by a glass-teflon homogenizer and recentrifuged at 30000×g for 10 min. This procedure (washings) was repeated twice more. The final pellet (membrane) was suspended in incubation medium (see below) so as to obtain a final protein concentration of 2 mg/ml. All manipulations were done at 0°-4° C.
(ii) Receptor binding assay
The composition of incubation medium was as follows: 50 mM Tris-HCl (pH 7.4), 5 mM MgCl2, 5 mM dithiothreitol (DTT), 0.14 mg/ml bacitracin, and 0.2% bovine serum albumin (BSA). Freshly prepared membranes (200 μg protein) were incubated for 30 min under shaking at 37° C. in plastic tubes in 500 μl of incubation medium with 50 pM ^125 I-CCK-8 in the presence or absence of test compound (1×10^-8 M). To determine the non-specific binding, CCK-8 at 1 μM was added. […] After washing the filter with 50 mM Tris-HCl (pH 7.4) buffer containing 0.1% BSA, the radioactivity of the filter was counted. […] The effect of test compound was expressed as % inhibition of specific ^125 I-CCK-8 binding.

CN1CCN2C(=O)C(NC(=O)c3cc4ccccc4[nH]3)N=C(c3ccccc3F)c3cccc1c32 (racemic) [Example 2, (6RS)-1-methyl-5-oxo-6-(2-indolylcarbonylamino)-8-(2-fluorophenyl)-2,3,5,6-tetrahydro-1H-[1,4]diazepino-[1,7,6-de]quinoxaline]
Inhibition (%) of specific 125I-CCK-8 binding: 95.7%
